From ChEMBL document CHEMBL1201862, “PubChem BioAssay data set” (2004)
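Growth conditions: 96-well plates. Treatment: test compound, 48 hours, 5 concentrations. Analysis: linear interpolation between bracketing concentrations; unreached endpoints set to highest concentration. GI50 marks 50% less growth.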 Active and inactive are the calls of the source. No stated cut-off is given here; in the data, active = GI50 up to about 1.1 µM and inactive = higher.

Key:
Assay in all cases: DTP human tumour cell line panel, 48 h
[1] = system: BT-549
[2] = system: CAKI-1
[3] = system: CCRF-CEM
[4] = system: EKVX
[5] = system: HOP-62
[6] = system: LOX IMVI
[7] = system: MDA-MB-231
[8] = system: MDA-N
[9] = system: MOLT-4
[10] = system: Malme-3M
[11] = system: NCI/ADR-RES
[12] = system: OVCAR-8
[13] = system: RXF 393
[14] = system: SK-MEL-2
[15] = system: SK-MEL-5
[16] = system: SN12C
[17] = system: SNB-75
[18] = system: T47D
[19] = system: U-251
[20] = system: SR

Row | SMILES | GI50 [1] | GI50 [2] | GI50 [3] | GI50 [4] | GI50 [5] | GI50 [6] | GI50 [7] | GI50 [8] | GI50 [9] | GI50 [10] | GI50 [11] | GI50 [12] | GI50 [13] | GI50 [14] | GI50 [15] | GI50 [16] | GI50 [17] | GI50 [18] | GI50 [19] | GI50 [20]
1 | Cn1c(N2CCCC2)c(C=O)c(=O)n(C)c1=O | > 100 µM (inactive) | > 100 µM (inactive) | > 100 µM (inactive) | > 100 µM (inactive) | > 100 µM (inactive) | > 100 µM (inactive) | > 100 µM (inactive) | > 100 µM (inactive) | > 100 µM (inactive) | 78.5 µM (inactive) | > 100 µM (inactive) | > 100 µM (inactive) | > 100 µM (inactive) | > 100 µM (inactive) | > 100 µM (inactive) | > 100 µM (inactive) | 14.1 µM (inactive) | > 100 µM (inactive) | > 100 µM (inactive) | 
2 | COc1ccc(/C=C/c2ccnc3ccccc23)c(OC)c1 | 7.18 µM (inactive) | > 10 µM (inactive) | 4.97 µM (inactive) | 5.19 µM (inactive) | > 10 µM (inactive) | 7.71 µM (inactive) | 4.17 µM (inactive) | 3.41 µM (inactive) | 4.54 µM (inactive) | 5.69 µM (inactive) | 3.86 µM (inactive) | 7.52 µM (inactive) | > 10 µM (inactive) | 8.51 µM (inactive) | 3.66 µM (inactive) | > 10 µM (inactive) | 4.23 µM (inactive) | > 10 µM (inactive) | 9.02 µM (inactive) | 
3 | O=C(O)c1ccc(/C=N/N=C2c3ccccc3-c3ccccc32)cc1 | > 100 µM (inactive) | 38.6 µM (inactive) | 44.1 µM (inactive) | > 100 µM (inactive) | 54.7 µM (inactive) | > 100 µM (inactive) | > 100 µM (inactive) | 50.9 µM (inactive) | 38.6 µM (inactive) | 29 µM (inactive) | > 100 µM (inactive) | 49.8 µM (inactive) | 89.9 µM (inactive) | 27.4 µM (inactive) | 26.5 µM (inactive) | 31.5 µM (inactive) |  | 64 µM (inactive) | 37.4 µM (inactive) | 30.4 µM (inactive)
4 | C=CCSC(C)=O | > 100 µM (inactive) | > 100 µM (inactive) | > 100 µM (inactive) | > 100 µM (inactive) | > 100 µM (inactive) | > 100 µM (inactive) | > 100 µM (inactive) | > 100 µM (inactive) | > 10 µM (inactive) | > 100 µM (inactive) | > 100 µM (inactive) | > 100 µM (inactive) |  | > 100 µM (inactive) | > 100 µM (inactive) | > 100 µM (inactive) | > 100 µM (inactive) | > 100 µM (inactive) | > 100 µM (inactive) | > 100 µM (inactive)
5 | CNC(=O)CCCNC(=O)CCCC(=O)N(C)C | > 100 µM (inactive) | > 100 µM (inactive) | > 100 µM (inactive) | > 100 µM (inactive) | > 100 µM (inactive) | > 100 µM (inactive) | > 100 µM (inactive) | > 100 µM (inactive) | > 100 µM (inactive) | > 100 µM (inactive) | > 100 µM (inactive) | > 100 µM (inactive) |  | > 100 µM (inactive) | > 100 µM (inactive) | > 100 µM (inactive) | > 100 µM (inactive) | > 100 µM (inactive) | > 100 µM (inactive) | 
6 | CC(=O)OC/C=C(\C)CCC(Br)C(C)(C)Br (stereo not given) | > 10 µM (inactive) | > 10 µM (inactive) | > 10 µM (inactive) | > 10 µM (inactive) | > 10 µM (inactive) | > 10 µM (inactive) | > 10 µM (inactive) | > 10 µM (inactive) | > 10 µM (inactive) | > 10 µM (inactive) | > 10 µM (inactive) | > 10 µM (inactive) | > 10 µM (inactive) | > 10 µM (inactive) | > 10 µM (inactive) | > 10 µM (inactive) | > 10 µM (inactive) | > 10 µM (inactive) | > 10 µM (inactive) | 
7 | O=C(O)C#Cc1ccc([N+](=O)[O-])cc1 | > 100 µM (inactive) | > 100 µM (inactive) | > 100 µM (inactive) | > 100 µM (inactive) | > 100 µM (inactive) | > 100 µM (inactive) | > 100 µM (inactive) | > 100 µM (inactive) | > 100 µM (inactive) | > 100 µM (inactive) | > 100 µM (inactive) | > 100 µM (inactive) | > 100 µM (inactive) | > 100 µM (inactive) | > 100 µM (inactive) | > 100 µM (inactive) |  | > 100 µM (inactive) | > 100 µM (inactive) | > 100 µM (inactive)
8 | CN(C)CCn1c(=O)c2ccc(NCCNCCO)c3c(=O)c4ccccc4n(c1=O)c23 | 1.21 µM (inactive) | < 0.0108 µM (active) | < 0.01 µM (active) | 0.231 µM (active) | 0.0287 µM (active) | 0.0341 µM (active) | 0.22 µM (active) | 0.328 µM (active) | < 0.01 µM (active) | 0.336 µM (active) | 1.72 µM (inactive) | 0.0632 µM (active) |  | 0.423 µM (active) | 0.0716 µM (active) | 0.0206 µM (active) | 0.0445 µM (active) | 0.129 µM (active) | 0.0468 µM (active) | < 0.01 µM (active)
9 | CN(C)CCNc1ccccn1 | > 100 µM (inactive) | > 100 µM (inactive) |  | > 100 µM (inactive) | > 100 µM (inactive) | > 100 µM (inactive) | > 100 µM (inactive) | > 100 µM (inactive) | > 100 µM (inactive) | > 100 µM (inactive) | > 100 µM (inactive) | > 100 µM (inactive) | > 100 µM (inactive) | > 100 µM (inactive) | > 100 µM (inactive) | > 100 µM (inactive) |  | > 100 µM (inactive) | > 100 µM (inactive) | > 100 µM (inactive)
10 | CCOC(=O)NC(Nc1ccc(C)cc1)(C(F)(F)F)C(F)(F)F | > 100 µM (inactive) |  | > 100 µM (inactive) |  | > 100 µM (inactive) | > 100 µM (inactive) | > 100 µM (inactive) | > 100 µM (inactive) | > 100 µM (inactive) | > 100 µM (inactive) | > 100 µM (inactive) | > 100 µM (inactive) |  |  | > 100 µM (inactive) | > 100 µM (inactive) | > 100 µM (inactive) | > 100 µM (inactive) | > 100 µM (inactive) | 
11 | CCN(CC)Cc1c(/C=C\c2cc(OC)c(OC)c(OC)c2)ccc(OC)c1O | 6.01 µM (inactive) | 4.42 µM (inactive) | 6.53 µM (inactive) | 6.1 µM (inactive) | 5.02 µM (inactive) | 6.24 µM (inactive) | 4.28 µM (inactive) | 0.387 µM (active) | 15.3 µM (inactive) | 3.23 µM (inactive) | 2.16 µM (inactive) | 4.1 µM (inactive) | 2.04 µM (inactive) | 6.62 µM (inactive) | 2.68 µM (inactive) | 5.3 µM (inactive) | 1.84 µM (inactive) | > 100 µM (inactive) | 2.87 µM (inactive) | 
12 | Nc1ccc2c(c1)S(=O)(=O)c1cc(N)ccc1-2 | > 100 µM (inactive) | > 100 µM (inactive) |  | > 100 µM (inactive) | > 100 µM (inactive) | > 100 µM (inactive) | > 100 µM (inactive) | > 100 µM (inactive) | > 100 µM (inactive) |  | > 100 µM (inactive) | > 100 µM (inactive) | > 100 µM (inactive) | > 100 µM (inactive) | > 100 µM (inactive) | > 100 µM (inactive) |  | > 100 µM (inactive) | > 100 µM (inactive) | 
13 | COc1ccc(C2C3=CONC3CC3CCCCC32)cc1 (stereo not given) | > 100 µM (inactive) | > 100 µM (inactive) | 42.1 µM (inactive) |  | > 100 µM (inactive) | 69.7 µM (inactive) |  | > 10 µM (inactive) | 18.9 µM (inactive) | 43.3 µM (inactive) |  | 85.7 µM (inactive) |  | 33.8 µM (inactive) | 50.8 µM (inactive) |  | > 100 µM (inactive) | 35.6 µM (inactive) | 46 µM (inactive) | 41.9 µM (inactive)
14 | CC(C)=NNC1=NC(C)(C)P(=O)(NNc2ncccn2)S1 (stereo not given) | > 100 µM (inactive) | > 100 µM (inactive) |  | > 100 µM (inactive) | > 100 µM (inactive) |  | > 100 µM (inactive) | > 100 µM (inactive) | > 100 µM (inactive) |  |  | > 100 µM (inactive) | > 100 µM (inactive) | > 100 µM (inactive) | > 100 µM (inactive) |  |  | > 100 µM (inactive) | > 100 µM (inactive) | 
15 | NNC(=O)CCCCCCCC(=O)O | > 100 µM (inactive) | > 100 µM (inactive) | > 100 µM (inactive) | > 100 µM (inactive) | > 100 µM (inactive) | > 100 µM (inactive) | > 100 µM (inactive) | > 100 µM (inactive) | > 100 µM (inactive) | > 100 µM (inactive) | > 100 µM (inactive) | 10.4 µM (inactive) |  | > 100 µM (inactive) | > 100 µM (inactive) | > 100 µM (inactive) | > 100 µM (inactive) | > 100 µM (inactive) | > 100 µM (inactive) | > 100 µM (inactive)
16 | Cc1c(C#N)c(N)[nH]c(=S)c1C#N | > 100 µM (inactive) | > 100 µM (inactive) | > 100 µM (inactive) | > 100 µM (inactive) | > 100 µM (inactive) | > 100 µM (inactive) | > 100 µM (inactive) | > 100 µM (inactive) | > 100 µM (inactive) | > 100 µM (inactive) |  | > 100 µM (inactive) | > 100 µM (inactive) | > 100 µM (inactive) | > 100 µM (inactive) | > 100 µM (inactive) | > 100 µM (inactive) | > 100 µM (inactive) | > 100 µM (inactive) | > 100 µM (inactive)
